Results taken from PMC7129916 (Clinical Microbiology and Infection, 2015).
Converted amounts (≈) assume the structure as drawn. Like-named read-outs stand apart in the source and are kept apart here.

Experiments:
[1] = test system: S. pneumoniae (Sp); assay: microbe, parasite or virus in culture; type: cell-based; details: Streptococcus pneumoniae
[2] = test system: M. catarrhalis (Mc); assay: microbe, parasite or virus in culture; type: cell-based; details: Moraxella catarrhalis
[3] = test system: H. influenzae (Hi); assay: microbe, parasite or virus in culture; type: cell-based; details: Haemophilus influenzae
[4] = test system: group B streptococci; type: cell-based
[5] = test system: S. pneumoniae
[6] = test system: beta1-integrin in human tendon cells
[7] = test system: S. pneumoniae; assay: microbe, parasite or virus in culture; type: cell-based; details: for susceptible (%): DIN breakpoints
[8] = test system: H. influenzae; assay: microbe, parasite or virus in culture; type: cell-based
[9] = test system: viridans group streptococci; assay: organism not typed; type: cell-based
[10] = test system: M. catarrhalis; assay: microbe, parasite or virus in culture; type: cell-based; details: Moraxella catarrhalis
[11] = test system: viridans Streptococci (S. mitis, S. oralis); type: cell-based; details: susceptible strains, salivary concentrations
[12] = test system: S. pneumoniae with reduced susceptibility to ciprofloxacin; assay: microbe, parasite or virus in culture; type: cell-based
[13] = test system: M. catarrhalis; assay: microbe, parasite or virus in culture; type: cell-based
[14] = test system: invasive GAS isolates; type: cell-based, S. pyogenes
[15] = type: in vivo, human; details: after 6 months

| Molecule | MIC90 [1] [µg/mL] | MIC50 [2] [µg/mL] | MIC90 [2] [µg/mL] | susceptibility of all strains [4] | %I ([5]; 2002 (n = 103)) [%] | %S ([5]; 2002 (n = 103)) [%] | %I ([5]; 2003 (n = 137)) [%] | %R ([5]; 2003 (n = 137)) [%] | %S ([5]; 2003 (n = 137)) [%] | %I ([5]; 2004 (n = 110)) [%] | %R ([5]; 2004 (n = 110)) [%] | %S ([5]; 2004 (n = 110)) [%] | other results |
| --- | --- | --- | --- | --- | --- | --- | --- | --- | --- | --- | --- | --- | --- |
| CO/N=C(\C(=O)N[C@@H]1C(=O)N2C(C(=O)O)=C(COC(C)=O)CS[C@H]12)c1csc(N)n1 [cefotaxime] | – | – | – | – | 3.8 | 95.2 | 4.4 | 0.6 | 95 | 3.8 | 0 | 96.2 | %R ([5]; 2002 (n = 103)): 1% |
| O=C(O)c1cn(C2CC2)c2cc(N3CCNCC3)c(F)cc2c1=O [ciprofloxacin] | 2 (≈ 6.04 µM) | 0.06 (≈ 0.181 µM) | 0.06 (≈ 0.181 µM) | – | – | – | – | – | – | – | – | – | MIC50 [1]: 1 µg/mL (≈ 3.02 µM); amount of beta1-integrin vs untreated control [6]: significant decrease |
| CC[C@H]1OC(=O)[C@H](C)[C@@H](O[C@H]2C[C@@](C)(OC)[C@@H](O)[C@H](C)O2)[C@H](C)[C@@H](O[C@@H]2O[C@H](C)C[C@H](N(C)C)[C@H]2O)[C@](C)(OC)C[C@@H](C)C(=O)[C@H](C)[C@@H](O)[C@]1(C)O [clarithromycin] | – | – | – | – | 0 | 58.8 | 0 | 38.7 | 61.3 | 1 | 34.5 | 64.5 | susceptible (%) [7]: 85.7%; susceptible (%) [8]: 4.5% |
| CC[C@H]1OC(=O)[C@H](C)[C@@H](O[C@H]2C[C@@](C)(OC)[C@@H](O)[C@H](C)O2)[C@H](C)[C@@H](O[C@@H]2O[C@H](C)C[C@H](N(C)C)[C@H]2O)[C@](C)(O)C[C@@H](C)C(=O)[C@H](C)[C@@H](O)[C@]1(C)O [erythromycin] | – | – | – | – | 0 | 56.9 | 1.4 | 38.8 | 59.8 | 0 | 35.5 | 64.5 | MIC ([9]; S. sanguis mef(A)): 4 µg/mL (≈ 5.45 µM); %R ([5]; 2002 (n = 103)): 43.1% |
| CO/N=C1\CN(c2nc3c(cc2F)c(=O)c(C(=O)O)cn3C2CC2)CC1CN (stereo not drawn) [gemifloxacin] | – | – | – | – | – | – | – | – | – | – | – | – | MIC50 [10]: ≤ 0.12 µg/mL |
| C[C@H]1COc2c(N3CCN(C)CC3)c(F)cc3c(=O)c(C(=O)O)cn1c23 [levofloxacin] | 1 (≈ 2.77 µM) | 0.03 (≈ 0.083 µM) | 0.06 (≈ 0.166 µM) | susceptible | 3 | 96 | 0.7 | 1.5 | 97.8 | 0 | 0 | 100 | time to eradication [11]: 12 to 24 h; MIC90 ([7]; n = 426): 1 µg/mL (≈ 2.77 µM); MIC50 [1]: 1 µg/mL (≈ 2.77 µM); MIC50 [3]: 0.03 µg/mL (≈ 0.083 µM); MIC90 [3]: 0.03 µg/mL (≈ 0.083 µM); MIC50 ([12]; Streptococcus pneumoniae): 0.5 µg/mL (≈ 1.38 µM); MIC90 ([12]; Streptococcus pneumoniae): 1 µg/mL (≈ 2.77 µM); MIC90 ([12]; ciprofloxacin MIC ≥8 mg/L): 8; MIC50 [10]: ≤ 0.03 µg/mL; MIC ([10]; read-out: MIC 10» (second value)): 1 µg/mL (≈ 2.77 µM); %R ([5]; 2002 (n = 103)): 1%; amount of beta1-integrin vs untreated control ([6]; 3 mg/l, 1-4 days): no effect |
| CC(=O)NC[C@H]1CN(c2ccc(N3CCOCC3)c(F)c2)C(=O)O1 [linezolid] | – | – | – | – | – | – | – | – | – | – | – | – | MIC [9]: 0.5 µg/mL (≈ 1.48 µM); %I [5]: 0%; %R [5]: 0%; %S [5]: 100% |
| CN(C)[C@@H]1C(O)=C(C(N)=O)C(=O)[C@@]2(O)C(O)=C3C(=O)c4c(O)cccc4[C@@](C)(O)[C@H]3C[C@@H]12 [tetracycline] | – | – | – | – | – | – | – | – | – | – | – | – | resistant isolates [14]: 50%; mean per cent reduction, inflammatory lesions [15]: 56%; mean per cent reduction, non-inflammatory lesions [15]: 45% |
| CN[C@H](CC(C)C)C(=O)N[C@H]1C(=O)N[C@@H](CC(N)=O)C(=O)N[C@H]2C(=O)N[C@H]3C(=O)N[C@H](C(=O)N[C@H](C(=O)O)c4cc(O)cc(O)c4-c4cc3ccc4O)[C@H](O)c3ccc(c(Cl)c3)Oc3cc2cc(c3O[C@@H]2O[C@H](CO)[C@@H](O)[C@H](O)[C@H]2O[C@H]2C[C@](C)(N)[C@H](O)[C@H](C)O2)Oc2ccc(cc2Cl)[C@H]1O [vancomycin] | – | – | – | susceptible | – | – | – | – | – | – | – | – | %I [5]: 0%; %R [5]: 0%; %S [5]: 100% |
| Quinupristin-Dalfopristin | – | – | – | – | 5.8 | 94.2 | 0 | 0 | 100 | 1 | 0 | 99 | %R ([5]; 2002 (n = 103)): 0% |
| amoxicillin/clavulanate | – | – | – | – | – | – | – | – | – | – | – | – | susceptible (%) [8]: 87.9%; susceptible (%) [13]: 99.1% |
| quinupristin/dalfopristin | – | – | – | susceptible | – | – | – | – | – | – | – | – | – |
| teicoplanin | – | – | – | susceptible | – | – | – | – | – | – | – | – | – |

Second part, led by results:

| MIC90 [1] [µg/mL] | MIC50 [2] [µg/mL] | MIC90 [2] [µg/mL] | Molecule | susceptibility of all strains [4] | %I ([5]; 2002 (n = 103)) [%] | %S ([5]; 2002 (n = 103)) [%] | %I ([5]; 2003 (n = 137)) [%] | %R ([5]; 2003 (n = 137)) [%] | %S ([5]; 2003 (n = 137)) [%] | %I ([5]; 2004 (n = 110)) [%] | %R ([5]; 2004 (n = 110)) [%] | %S ([5]; 2004 (n = 110)) [%] | other results |
| --- | --- | --- | --- | --- | --- | --- | --- | --- | --- | --- | --- | --- | --- |
| 0.25 (≈ 0.715 µM) | 1 (≈ 2.86 µM) | 4 (≈ 11.4 µM) | CC1(C)S[C@@H]2[C@H](NC(=O)[C@H](N)c3ccccc3)C(=O)N2[C@H]1C(=O)O [ampicillin] | susceptible | – | – | – | – | – | – | – | – | MIC50 [3]: 0.5 µg/mL (≈ 1.43 µM) |
| 0.25 (≈ 0.451 µM) | 0.5 (≈ 0.902 µM) | 1 (≈ 1.8 µM) | CO/N=C(\C(=O)N[C@@H]1C(=O)N2C(C(=O)O)=C(CSc3nc(=O)c(=O)[nH]n3C)CS[C@H]12)c1csc(N)n1 [ceftriaxone] | – | – | – | – | – | – | – | – | – | MIC50 [1]: 0.03 µg/mL (≈ 0.0541 µM); MIC90 [3]: 0.03 µg/mL (≈ 0.0541 µM) |
| 1 (≈ 2.36 µM) | 1 (≈ 2.36 µM) | – | CO/N=C(\C(=O)N[C@@H]1C(=O)N2C(C(=O)O)=C(COC(N)=O)CS[C@H]12)c1ccco1 [cefuroxime] | – | – | – | – | – | – | – | – | – | MIC50 [3]: 1 µg/mL (≈ 2.36 µM) |
| 8 (≈ 18 µM) | – | 0.25 (≈ 0.563 µM) | C[C@H]1c2cccc(O)c2C(=O)C2=C(O)[C@]3(O)C(=O)C(C(N)=O)=C(O)[C@@H](N(C)C)[C@@H]3[C@@H](O)[C@@H]21 [doxycycline] | – | – | – | – | – | – | – | – | – | – |
| 0.5 (≈ 1.5 µM) | 64 (≈ 191 µM) | 64 (≈ 191 µM) | CC1(C)S[C@@H]2[C@H](NC(=O)Cc3ccccc3)C(=O)N2[C@H]1C(=O)O [penicillin] | susceptible | 31.1 | 46.6 | 55.5 | 5 | 39.5 | 30 | 11 | 59 | susceptible (%) [7]: 93.3%; susceptible (%) [8]: 1.0%; susceptible (%) [13]: 9.8%; MIC50 [1]: 0.03 µg/mL (≈ 0.0897 µM); MIC50 [3]: 1 µg/mL (≈ 2.99 µM); MIC90 [3]: 64 µg/mL (≈ 191 µM); %R ([5]; 2002 (n = 103)): 22.3% |
